Experimental data published in patent publication US8367648B2, “Substituted 16,17-annellated steroid compounds for use in womens healthcare” (MSD OSS B.V., priority 2009, dated 2013).
Where two headings read alike, the source gives them in different places.

How the values were obtained:
[1] = target: T1, ERβ (Homo sapiens, UniProt Q92731); assay: In vitro nuclear receptor profile, ERβ agonism; assay type: cell-based; conditions: agonist mode; read-out: ERβ ago EC50
[2] = target: T2, ERα (Homo sapiens, UniProt P03372); assay: In vitro nuclear receptor profile, ERα agonism; assay type: cell-based; conditions: for ERα ago eff: agonist efficacy
T2 sequence (P03372 1-595): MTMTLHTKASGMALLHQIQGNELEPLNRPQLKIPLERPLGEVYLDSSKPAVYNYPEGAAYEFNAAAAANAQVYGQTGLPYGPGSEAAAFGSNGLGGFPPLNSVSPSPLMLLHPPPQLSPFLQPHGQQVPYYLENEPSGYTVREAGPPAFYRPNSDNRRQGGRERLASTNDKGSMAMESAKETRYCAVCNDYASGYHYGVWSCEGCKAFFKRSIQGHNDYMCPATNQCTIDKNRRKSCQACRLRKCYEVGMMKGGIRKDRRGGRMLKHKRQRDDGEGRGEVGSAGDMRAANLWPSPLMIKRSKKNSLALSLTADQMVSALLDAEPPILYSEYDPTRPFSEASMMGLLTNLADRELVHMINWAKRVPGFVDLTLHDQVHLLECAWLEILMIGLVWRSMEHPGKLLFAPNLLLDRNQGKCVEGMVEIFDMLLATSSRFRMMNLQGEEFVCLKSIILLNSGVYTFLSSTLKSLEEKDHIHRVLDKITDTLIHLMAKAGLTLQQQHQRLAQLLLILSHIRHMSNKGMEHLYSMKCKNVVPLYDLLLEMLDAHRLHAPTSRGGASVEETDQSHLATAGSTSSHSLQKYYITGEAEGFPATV

[3] = target: T3, progesterone receptor B (PR-B) (Homo sapiens, UniProt P06401); assay: In vitro nuclear receptor profile, PR-B antagonism; assay type: cell-based; conditions: for PR-B ant anteff: antagonist efficacy; for IC50: antagonist mode, read-out: PR-B ant IC50
T3 sequence (P06401 1-933): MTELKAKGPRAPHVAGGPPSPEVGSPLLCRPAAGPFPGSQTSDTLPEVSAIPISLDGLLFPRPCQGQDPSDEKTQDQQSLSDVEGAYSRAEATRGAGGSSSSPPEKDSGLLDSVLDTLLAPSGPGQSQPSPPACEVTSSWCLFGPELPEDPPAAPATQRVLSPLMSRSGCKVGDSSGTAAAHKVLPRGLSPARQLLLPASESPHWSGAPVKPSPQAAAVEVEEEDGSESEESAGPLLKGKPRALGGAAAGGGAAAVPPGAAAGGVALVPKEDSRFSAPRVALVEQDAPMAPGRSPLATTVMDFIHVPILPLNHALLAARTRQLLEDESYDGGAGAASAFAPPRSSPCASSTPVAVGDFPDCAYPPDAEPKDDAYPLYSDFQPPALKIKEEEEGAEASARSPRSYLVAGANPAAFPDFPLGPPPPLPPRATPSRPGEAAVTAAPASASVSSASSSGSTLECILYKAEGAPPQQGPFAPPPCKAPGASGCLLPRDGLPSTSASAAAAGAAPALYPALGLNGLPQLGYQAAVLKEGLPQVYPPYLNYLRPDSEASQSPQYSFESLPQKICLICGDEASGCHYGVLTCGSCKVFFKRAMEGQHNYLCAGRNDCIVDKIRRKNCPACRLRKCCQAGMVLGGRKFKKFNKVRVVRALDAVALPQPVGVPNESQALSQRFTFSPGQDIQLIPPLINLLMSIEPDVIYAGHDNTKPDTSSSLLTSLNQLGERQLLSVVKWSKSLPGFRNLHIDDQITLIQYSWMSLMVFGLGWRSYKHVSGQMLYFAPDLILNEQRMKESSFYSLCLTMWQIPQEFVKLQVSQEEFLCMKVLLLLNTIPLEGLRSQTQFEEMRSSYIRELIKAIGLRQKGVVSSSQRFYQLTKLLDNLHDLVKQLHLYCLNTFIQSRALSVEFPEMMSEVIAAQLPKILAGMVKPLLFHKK

[4] = target: T4, PR-A (Homo sapiens, UniProt P06401); assay: In vitro nuclear receptor profile, PR-A antagonism; assay type: cell-based; conditions: for PR-A ant anteff: antagonist efficacy; for IC50: antagonist mode, read-out: PR-A ant IC50
T4 sequence (P06401 1-769 isoform P06401-2): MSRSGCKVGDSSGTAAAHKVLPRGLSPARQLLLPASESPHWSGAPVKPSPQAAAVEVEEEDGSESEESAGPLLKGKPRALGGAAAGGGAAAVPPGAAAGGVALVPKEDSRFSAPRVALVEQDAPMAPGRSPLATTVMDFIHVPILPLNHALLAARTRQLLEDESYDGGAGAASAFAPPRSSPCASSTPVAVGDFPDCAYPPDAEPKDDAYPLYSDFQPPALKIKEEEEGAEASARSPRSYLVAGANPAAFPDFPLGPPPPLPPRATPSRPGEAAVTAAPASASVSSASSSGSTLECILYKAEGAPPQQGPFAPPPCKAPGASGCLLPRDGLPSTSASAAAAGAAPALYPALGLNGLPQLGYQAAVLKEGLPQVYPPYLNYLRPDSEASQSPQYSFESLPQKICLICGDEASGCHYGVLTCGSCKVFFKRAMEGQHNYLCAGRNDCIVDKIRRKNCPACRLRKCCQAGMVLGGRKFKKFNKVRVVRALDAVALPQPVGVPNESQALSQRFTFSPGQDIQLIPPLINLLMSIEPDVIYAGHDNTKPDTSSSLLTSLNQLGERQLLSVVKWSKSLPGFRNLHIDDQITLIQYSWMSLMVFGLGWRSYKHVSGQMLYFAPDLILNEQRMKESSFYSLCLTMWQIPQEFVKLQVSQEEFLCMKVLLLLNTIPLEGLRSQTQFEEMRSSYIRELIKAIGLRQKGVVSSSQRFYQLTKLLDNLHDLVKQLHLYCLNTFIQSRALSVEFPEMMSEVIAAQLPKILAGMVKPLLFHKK

[5] = target: T1, ERβ; assay: In vitro nuclear receptor profile, ERβ antagonism; assay type: cell-based; conditions: for ERβ ant anteff: antagonist efficacy; for IC50: antagonist mode, read-out: ERβ ant IC50
[6] = target: T3, progesterone receptor B (PR-B); assay: In vitro nuclear receptor profile, PR-B agonism; assay type: cell-based
[7] = target: T4, PR-A; assay: In vitro nuclear receptor profile, PR-A agonism; assay type: cell-based; conditions: for EC50: agonist mode, read-out: PR-A ago EC50
[8] = target: T2, ERα; assay: In vitro nuclear receptor profile, ERα antagonism; assay type: cell-based
[9] = rat, in vivo
[10] = tested on: ovulation; assay: Ovulation inhibition in intact cycling female rats; assay type: in vivo, rat
[11] = tested on: endometrium; assay: 4-week phase I study, plasma exposure and endometrial biopsies; assay type: in vivo, human; conditions: biopsies on day 29, female human volunteers
[12] = as above; assay type: in vivo, human; conditions: plasma; female human volunteers; formed by metabolism from oral 10 mg daily Org 41621, 4 weeks; read-out: blood plasma level Cmax
[13] = tested on: LH/FSH, uterine tissue, vaginal tissue, cholesterol metabolism, bone; assay: 4-week multiple dose study in ovariectomized female rats; assay type: in vivo, rat
[14] = Embryofetal toxicity study in pregnant rats
[15] = tested on: bone mineral density; assay: AOST BMD (rat); assay type: in vivo
[16] = tested on: vaginal tissue; assay: Allen-Doisy (rat); assay type: in vivo
[17] = Solubility in water; assay type: physicochemical; conditions: in comparison to Org 41621
Source text: As the diseases in which the compounds can be used are in the area of women's health care the vaginal route of administration is also contemplated. A medicine can be formulated in the form of a device for vaginal drug delivery such as in admixture with a flexible polymer for a removable intrauterine device or a removable vaginal device, for example in the form of a ring. Polymers or other additives can also be used for a parenteral implant, such as a subcutaneous implant for extended release of a drug according to the invention. As such, extended release formulations or other formulations aimed at particular absorption profiles are also within the scope of the invention. […] This offers an advantage for uses in the manufacture of medicines wherein higher solubility is desirable, such as a drinkable or injectable formulation.

[18] = tested on: ovulation; assay: Ovulation inhibition in intact cycling female monkeys; assay type: in vivo, Macaca arctoides and Macaca fascicularis; conditions: 21 days once-a-day oral dosing in gelatine/mannitol
Procedure: The minimal active dose (MAD) for ovulation inhibition upon oral dosing in gelatine/mannitol was established at <=0.1 mg/kg per day.

[19] = tested on: estrogen receptors in the CNS; assay: Lordosis model (facilitation of female sexual behaviour); assay type: in vivo
[20] = target: T5, androgen receptor (AR) (Homo sapiens, UniProt P10275); assay: Androgen receptor antagonism in vitro; assay type: cell-based; conditions: antagonist; read-out: IC50 as antagonist for the androgen receptor (AR)
T5 sequence (P10275 1-920): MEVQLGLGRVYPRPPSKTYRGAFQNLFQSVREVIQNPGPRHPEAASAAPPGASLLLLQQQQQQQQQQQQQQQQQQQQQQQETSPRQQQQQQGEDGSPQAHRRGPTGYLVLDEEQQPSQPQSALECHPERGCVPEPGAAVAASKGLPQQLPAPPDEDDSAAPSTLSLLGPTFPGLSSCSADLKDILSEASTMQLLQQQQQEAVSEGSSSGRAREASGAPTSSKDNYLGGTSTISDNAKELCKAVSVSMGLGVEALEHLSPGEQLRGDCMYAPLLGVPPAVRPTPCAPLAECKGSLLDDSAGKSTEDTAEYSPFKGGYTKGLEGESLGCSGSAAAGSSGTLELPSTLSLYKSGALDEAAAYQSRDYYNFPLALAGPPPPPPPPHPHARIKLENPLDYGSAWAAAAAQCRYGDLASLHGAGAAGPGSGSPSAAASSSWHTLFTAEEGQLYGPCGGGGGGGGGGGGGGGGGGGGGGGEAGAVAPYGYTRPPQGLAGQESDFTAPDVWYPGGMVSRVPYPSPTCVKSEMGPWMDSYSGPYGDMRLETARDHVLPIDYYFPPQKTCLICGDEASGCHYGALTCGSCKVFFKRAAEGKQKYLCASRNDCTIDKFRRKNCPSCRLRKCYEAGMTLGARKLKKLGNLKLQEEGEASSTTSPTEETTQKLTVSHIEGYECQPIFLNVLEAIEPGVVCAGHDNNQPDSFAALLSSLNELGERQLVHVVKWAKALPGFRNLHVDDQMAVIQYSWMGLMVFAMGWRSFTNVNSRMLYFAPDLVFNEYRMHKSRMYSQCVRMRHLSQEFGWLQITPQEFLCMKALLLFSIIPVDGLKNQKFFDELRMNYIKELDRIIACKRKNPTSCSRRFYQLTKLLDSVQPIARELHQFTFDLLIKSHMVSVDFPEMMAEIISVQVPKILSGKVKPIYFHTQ

T1 sequence (Q92731 whole entry): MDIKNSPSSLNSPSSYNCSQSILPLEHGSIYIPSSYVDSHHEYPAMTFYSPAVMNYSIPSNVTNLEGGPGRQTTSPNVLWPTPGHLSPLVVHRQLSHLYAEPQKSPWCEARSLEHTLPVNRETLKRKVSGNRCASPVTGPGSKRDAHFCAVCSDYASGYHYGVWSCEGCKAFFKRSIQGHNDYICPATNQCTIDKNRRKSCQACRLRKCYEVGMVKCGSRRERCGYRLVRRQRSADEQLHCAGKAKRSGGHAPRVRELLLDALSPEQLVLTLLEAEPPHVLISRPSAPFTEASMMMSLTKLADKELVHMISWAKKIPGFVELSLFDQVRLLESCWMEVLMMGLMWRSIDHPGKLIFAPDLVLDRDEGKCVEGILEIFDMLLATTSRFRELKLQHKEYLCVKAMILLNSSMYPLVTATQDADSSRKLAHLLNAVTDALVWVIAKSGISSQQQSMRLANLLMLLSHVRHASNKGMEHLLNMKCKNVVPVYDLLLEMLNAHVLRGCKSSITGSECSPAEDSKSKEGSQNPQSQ

CCC[C@@H]1Cc2cc(O)ccc2[C@H]2CC[C@@]3(C)[C@@H](C[C@H]4CC[C@H](O)C[C@]43O)[C@H]12 [Org 41621, (7α,16β,17α,22β)-7-propyl-16,24-cyclo-19,21-dinorchola-1,3,5(10)-triene-3,17,22-triol, reference compound]
EC50 [1]: > 100 nM
ERα ago eff [2]: 0.95
EC50 ([2]; agonist mode, read-out: ERα ago EC50): 0.28 nM
PR-B ant anteff [3]: 0.74
IC50 [3]: 20.8 nM
PR-A ant anteff [4]: 0.85
IC50 [4]: 58.3 nM
ERβ ant anteff [5]: 0.89
IC50 [5]: 3.8 nM
EC50 ([6]; agonist mode, read-out: PR-B ago EC50): > 100 nM
EC50 [7]: > 100 nM
IC50 ([8]; antagonist mode, read-out: ERα ant IC50): > 1000 nM
major fetal abnormalities (ribs, humerus, scapula) ([9]; female, po, 0.09 mg/kg): 3/273
post implantation loss ([9]; female, po, 0.09 mg/kg): 15%
major fetal abnormalities (ribs, humerus, scapula) ([9]; female, po, 0.15 mg/kg): 11/216
post implantation loss ([9]; female, po, 0.15 mg/kg): 24%

CCC[C@@H]1Cc2cc(O)ccc2[C@H]2CC[C@@]3(C)[C@@H](C[C@H]4CCC(=O)C[C@]43O)[C@H]12 [Compound 10, (7α,16β,17α)-3,17-dihydroxy-7-propyl-16,24-cyclo-19,21-dinorchola-1,3,5(10)-trien-22-one]
EC50 [1]: > 10000 nM
minimal active dose (MAD) to inhibit ovulation ([10]; intact regularly cycling female rats): 0.1 mg/kg per day
Ovulation Inhibition (rat) MAD p.o. ([10]; rat, p.o.): 0.10 mg/kg · day
endometrial histopathology scores [11]: mostly atrophic or inactive endometrium
endometrial hyperplasia [11]: no signs of hyperplasia
Cmax [12]: 16 nM
PR-B ant anteff [3]: 0.55
IC50 [3]: 3.7 nM
PR-A ant anteff [4]: 0.54
IC50 [4]: 27 nM
behaviour on vaginal tissue, cholesterol metabolism and bone (bone mineral density, osteocalcin) [13]: behaves as an estrogen receptor agonist
circulating levels of LH and FSH ([13]; 4 weeks, oral and subcutaneous in gelatine/mannitol): effectively suppress
stimulation of rat uterine tissue (uterine weight) ([13]; daily oral dosing for 4 weeks, FIG. 1): only mildly stimulates
minor defects (wavy ribs) incidence ([14]; 0.1 mg/kg): 4/153
major fetal defects ([14]; treated groups): No major defects
activity at ERβ in words [5]: full antagonist
ERβ ant anteff [5]: 0.83
IC50 [5]: 8.4 nM
AOST BMD (rat) MAD p.o. [15]: 0.12 mg/kg · day
PR-B ago eff ([6]; agonist efficacy): 0.49
activity at PR-B in words ([6]; nanomolar activity): partial (ant)agonist
EC50 ([6]; read-out: EC50 for progesterone receptor B (PR-B)): 3.8 nM
Allen-Doisy (rat) MAD p.o. [16]: 0.15 mg/kg · day
solubility in water [17]: very well soluble in water
PR-A ago eff ([7]; agonist efficacy): 0.46
EC50 [7]: 30 nM
activity at PR-A in words ([7]; nanomolar activity): partial (ant)agonist
ERα ant anteff ([8]; antagonist efficacy): 0.47
dosages inducing early resorptions ([9]; female, po): > 0.3 mg/kg
post implantation loss ([9]; female, po, 0.3 mg/kg): approx. 80%
fetal effects ([9]; 0.3 mg/kg): No effects
teratogenicity ([9]; 0.3 mg/kg): no evidence of teratogenicity
minimal active dose (MAD) for ovulation inhibition [18]: <= 0.1 mg/kg per day
Lordosis (rat) MAD p.o. ([19]; p.o.): 0.14 mg/kg · day
response in the lordosis model ([19]; rat): near full agonist response
IC50 [20]: 125 nM
